Assay [1] deals with T1, PI3Kβ (Homo sapiens, UniProt P42338).
T1 construct: endogenous in cells; host or cells: Jurkat (ATCC TIB-152, clone E6-1) and Ramos (ATCC CRL-1596), 1:1 lysate mix
The assay is described as follows: kinobeads assay, PI3Kβ. The class given is binding. The following applies: 1:1 mix of Jurkat and Ramos cell lysates, read-out: Inhibition values (IC50 in μM) as determined in the kinobeads assay, PI3Kβ. The essentials:
(§1)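 Competition binding in 1:1 Jurkat/Ramos cell lysate (5 mg/ml protein) with test compound and a 1:1 mix of phenylthiazole- and phenylmorpholin-chromen-ligand beads, 2 h in cold room with shaking. Bead-bound kinases were eluted, quantified by antibody dot blot with infrared detection, and IC50 derived from dose-response curves.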

Assay [2] deals with T2, PI3Kγ (Homo sapiens, UniProt P48736).
T2 construct: endogenous in cells; host or cells: Jurkat (ATCC TIB-152, clone E6-1) and Ramos (ATCC CRL-1596), 1:1 lysate mix
Kind of assay: kinobeads assay, PI3Kγ. The settings on record: 1:1 mix of Jurkat and Ramos cell lysates, read-out: Inhibition values (IC50 in μM) as determined in the kinobeads assay, PI3Kγ. It is filed as binding. The essentials:
as §1

Assay [3] addresses T3, mTOR (Homo sapiens, UniProt P42345).
T3 construct: endogenous in cells; host or cells: Jurkat (ATCC TIB-152, clone E6-1) and Ramos (ATCC CRL-1596), 1:1 lysate mix
Kind of assay: mTOR kinobeads assay (competition binding in cell lysate, dot blot detection). The settings on record: 1:1 mix of Jurkat and Ramos cell lysates, read-out: Inhibition values (IC50 in μM) as determined in the kinobeads assay, mTor. The essentials: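 Competition binding in a 1:1 mix of Jurkat and Ramos cell lysates at 5 mg/ml total protein, with compounds in a 1:3 dilution series and an affinity matrix of two immobilized ligands, 2 h in the cold with shaking. mTOR captured on the beads was eluted and quantified by antibody dot blot with infrared detection. IC50 came from dose-response curves.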

The target in assay [4] is T4, PI3Kα (Homo sapiens, UniProt P42336).
T4 construct: endogenous in cells; host or cells: Jurkat (ATCC TIB-152, clone E6-1) and Ramos (ATCC CRL-1596), 1:1 lysate mix
The assay is described as follows: kinobeads assay, PI3Kα. The class given is binding. The following applies: 1:1 mix of Jurkat and Ramos cell lysates, read-out: Inhibition values (IC50 in μM) as determined in the kinobeads assay, PI3Kα. The essentials: as §1

The target of assay [5] is T5, DNA-dependent protein kinase (DNA-PK) (Homo sapiens, UniProt P78527).
T5 construct: endogenous in cells; host or cells: Jurkat (ATCC TIB-152, clone E6-1) and Ramos (ATCC CRL-1596), 1:1 lysate mix
Kind of assay: kinobeads assay, DNA-PK. It is filed as binding. The following applies: 1:1 mix of Jurkat and Ramos cell lysates, read-out: Inhibition values (IC50 in μM) as determined in the kinobeads assay, DNA-PK. The essentials: as §1

Assay [6] concerns the target T6, PI3Kδ (Homo sapiens, UniProt O00329).
T6 construct: endogenous in cells; host or cells: Jurkat (ATCC TIB-152, clone E6-1) and Ramos (ATCC CRL-1596), 1:1 lysate mix
The assay is described as follows: kinobeads assay, PI3Kδ. The settings on record: 1:1 mix of Jurkat and Ramos cell lysates, read-out: Inhibition values (IC50 in μM) as determined in the kinobeads assay, PI3Kδ. The class given is binding. The essentials: as §1

Counter-ions that a name gives are not always drawn. Some results are limits rather than exact numbers.

One may read the IC50 as the concentration that inhibits the measured activity by half.

T2 sequence (P48736 whole entry): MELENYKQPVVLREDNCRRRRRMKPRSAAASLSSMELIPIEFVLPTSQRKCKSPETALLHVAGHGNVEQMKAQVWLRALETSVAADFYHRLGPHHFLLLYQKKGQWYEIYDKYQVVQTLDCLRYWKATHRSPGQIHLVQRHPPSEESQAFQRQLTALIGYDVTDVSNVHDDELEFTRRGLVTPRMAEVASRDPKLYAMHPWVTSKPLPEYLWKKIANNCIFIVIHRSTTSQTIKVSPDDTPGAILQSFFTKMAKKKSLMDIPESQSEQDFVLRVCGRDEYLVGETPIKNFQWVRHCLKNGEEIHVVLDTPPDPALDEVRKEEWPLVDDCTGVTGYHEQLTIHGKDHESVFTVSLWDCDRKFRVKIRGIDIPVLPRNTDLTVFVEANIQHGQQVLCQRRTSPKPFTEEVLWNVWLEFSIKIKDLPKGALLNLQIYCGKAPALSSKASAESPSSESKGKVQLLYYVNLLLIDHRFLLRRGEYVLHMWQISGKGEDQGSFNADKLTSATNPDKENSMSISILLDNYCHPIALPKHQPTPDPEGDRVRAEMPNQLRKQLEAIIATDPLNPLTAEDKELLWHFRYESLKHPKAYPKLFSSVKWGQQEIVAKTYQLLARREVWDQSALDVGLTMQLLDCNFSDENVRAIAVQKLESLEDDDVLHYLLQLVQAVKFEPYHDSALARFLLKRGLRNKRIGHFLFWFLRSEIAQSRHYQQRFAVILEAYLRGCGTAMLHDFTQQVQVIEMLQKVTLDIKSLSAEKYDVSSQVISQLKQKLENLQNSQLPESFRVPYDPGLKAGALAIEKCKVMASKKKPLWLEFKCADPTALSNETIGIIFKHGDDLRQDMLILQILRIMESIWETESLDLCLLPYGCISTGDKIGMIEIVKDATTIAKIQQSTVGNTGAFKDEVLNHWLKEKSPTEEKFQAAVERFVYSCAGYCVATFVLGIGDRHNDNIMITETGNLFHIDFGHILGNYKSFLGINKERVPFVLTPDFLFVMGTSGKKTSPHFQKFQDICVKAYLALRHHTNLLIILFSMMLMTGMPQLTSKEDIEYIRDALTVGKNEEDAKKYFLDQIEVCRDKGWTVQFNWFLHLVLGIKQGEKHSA
T1 sequence (P42338 whole entry): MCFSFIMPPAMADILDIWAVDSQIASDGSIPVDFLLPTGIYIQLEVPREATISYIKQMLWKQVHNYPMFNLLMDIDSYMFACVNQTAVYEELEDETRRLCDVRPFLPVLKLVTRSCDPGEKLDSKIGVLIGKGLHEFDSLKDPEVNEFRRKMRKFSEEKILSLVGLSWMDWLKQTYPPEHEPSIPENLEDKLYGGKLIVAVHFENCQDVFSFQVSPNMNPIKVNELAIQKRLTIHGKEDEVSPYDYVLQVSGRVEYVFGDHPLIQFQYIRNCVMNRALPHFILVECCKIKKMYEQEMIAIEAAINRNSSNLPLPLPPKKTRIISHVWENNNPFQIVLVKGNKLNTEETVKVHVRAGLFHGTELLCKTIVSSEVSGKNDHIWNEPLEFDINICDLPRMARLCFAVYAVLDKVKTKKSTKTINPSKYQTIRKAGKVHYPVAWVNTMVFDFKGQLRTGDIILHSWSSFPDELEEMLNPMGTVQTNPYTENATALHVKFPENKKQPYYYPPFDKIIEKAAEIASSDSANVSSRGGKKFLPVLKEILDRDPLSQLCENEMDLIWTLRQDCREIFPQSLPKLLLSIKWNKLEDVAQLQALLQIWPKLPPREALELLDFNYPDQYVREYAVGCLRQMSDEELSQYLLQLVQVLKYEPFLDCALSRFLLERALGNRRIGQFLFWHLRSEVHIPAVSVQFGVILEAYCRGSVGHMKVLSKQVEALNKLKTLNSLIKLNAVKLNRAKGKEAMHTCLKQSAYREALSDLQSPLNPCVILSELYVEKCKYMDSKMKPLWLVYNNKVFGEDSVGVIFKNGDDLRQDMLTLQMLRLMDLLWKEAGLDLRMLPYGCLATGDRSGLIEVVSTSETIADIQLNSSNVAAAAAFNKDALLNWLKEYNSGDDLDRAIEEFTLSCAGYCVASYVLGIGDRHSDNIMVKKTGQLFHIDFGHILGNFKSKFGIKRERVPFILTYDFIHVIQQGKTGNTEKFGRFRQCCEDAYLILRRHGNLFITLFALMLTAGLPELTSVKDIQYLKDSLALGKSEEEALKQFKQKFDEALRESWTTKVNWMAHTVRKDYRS
T1 sequence (P27986 whole entry partner): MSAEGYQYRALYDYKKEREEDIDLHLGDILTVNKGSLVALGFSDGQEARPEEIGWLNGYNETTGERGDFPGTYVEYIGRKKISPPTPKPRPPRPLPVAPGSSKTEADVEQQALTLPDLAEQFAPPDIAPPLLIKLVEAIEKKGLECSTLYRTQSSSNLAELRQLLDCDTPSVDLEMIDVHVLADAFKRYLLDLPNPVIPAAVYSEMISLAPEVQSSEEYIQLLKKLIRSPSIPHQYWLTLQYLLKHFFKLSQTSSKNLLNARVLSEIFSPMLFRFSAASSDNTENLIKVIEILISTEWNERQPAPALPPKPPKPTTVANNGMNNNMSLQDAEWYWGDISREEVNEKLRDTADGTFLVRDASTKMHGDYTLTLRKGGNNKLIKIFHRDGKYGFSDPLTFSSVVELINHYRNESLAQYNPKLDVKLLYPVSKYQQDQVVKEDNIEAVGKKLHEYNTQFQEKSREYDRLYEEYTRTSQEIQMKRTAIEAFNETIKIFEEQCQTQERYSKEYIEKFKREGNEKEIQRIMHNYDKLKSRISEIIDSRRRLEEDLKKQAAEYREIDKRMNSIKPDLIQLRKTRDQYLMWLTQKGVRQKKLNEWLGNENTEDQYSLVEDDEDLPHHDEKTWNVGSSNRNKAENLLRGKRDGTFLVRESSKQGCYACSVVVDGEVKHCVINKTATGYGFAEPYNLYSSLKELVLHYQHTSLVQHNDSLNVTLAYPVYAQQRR
T6 sequence (O00329 whole entry): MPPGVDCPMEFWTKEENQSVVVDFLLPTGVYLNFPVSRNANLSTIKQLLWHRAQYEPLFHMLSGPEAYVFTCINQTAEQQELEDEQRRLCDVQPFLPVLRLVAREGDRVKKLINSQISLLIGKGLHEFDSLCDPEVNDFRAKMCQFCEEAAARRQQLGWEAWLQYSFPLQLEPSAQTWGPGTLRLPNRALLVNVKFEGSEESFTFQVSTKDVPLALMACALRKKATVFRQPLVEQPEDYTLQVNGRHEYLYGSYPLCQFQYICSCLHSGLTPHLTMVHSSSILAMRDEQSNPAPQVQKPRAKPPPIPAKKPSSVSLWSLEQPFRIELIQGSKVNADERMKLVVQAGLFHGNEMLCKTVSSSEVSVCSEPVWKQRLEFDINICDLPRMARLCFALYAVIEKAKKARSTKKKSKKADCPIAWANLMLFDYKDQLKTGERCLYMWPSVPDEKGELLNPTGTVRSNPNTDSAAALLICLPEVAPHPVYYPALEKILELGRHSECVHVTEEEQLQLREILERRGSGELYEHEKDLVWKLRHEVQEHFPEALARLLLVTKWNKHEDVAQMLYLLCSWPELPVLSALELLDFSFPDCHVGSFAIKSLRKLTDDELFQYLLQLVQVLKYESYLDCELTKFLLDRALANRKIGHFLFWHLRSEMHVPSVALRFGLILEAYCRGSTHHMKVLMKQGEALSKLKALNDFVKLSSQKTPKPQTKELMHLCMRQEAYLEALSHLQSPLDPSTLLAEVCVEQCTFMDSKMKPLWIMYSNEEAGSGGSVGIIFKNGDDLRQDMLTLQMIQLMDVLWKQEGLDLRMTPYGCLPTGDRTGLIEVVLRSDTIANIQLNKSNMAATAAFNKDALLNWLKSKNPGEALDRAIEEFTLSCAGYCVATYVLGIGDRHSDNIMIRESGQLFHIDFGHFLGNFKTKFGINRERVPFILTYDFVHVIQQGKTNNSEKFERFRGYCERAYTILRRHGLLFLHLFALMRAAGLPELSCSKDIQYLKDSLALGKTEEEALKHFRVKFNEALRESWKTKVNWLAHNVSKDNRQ
T6 sequence (P27986 whole entry partner): as the sequence (P27986 whole entry partner) above
T4 sequence (P42336 whole entry): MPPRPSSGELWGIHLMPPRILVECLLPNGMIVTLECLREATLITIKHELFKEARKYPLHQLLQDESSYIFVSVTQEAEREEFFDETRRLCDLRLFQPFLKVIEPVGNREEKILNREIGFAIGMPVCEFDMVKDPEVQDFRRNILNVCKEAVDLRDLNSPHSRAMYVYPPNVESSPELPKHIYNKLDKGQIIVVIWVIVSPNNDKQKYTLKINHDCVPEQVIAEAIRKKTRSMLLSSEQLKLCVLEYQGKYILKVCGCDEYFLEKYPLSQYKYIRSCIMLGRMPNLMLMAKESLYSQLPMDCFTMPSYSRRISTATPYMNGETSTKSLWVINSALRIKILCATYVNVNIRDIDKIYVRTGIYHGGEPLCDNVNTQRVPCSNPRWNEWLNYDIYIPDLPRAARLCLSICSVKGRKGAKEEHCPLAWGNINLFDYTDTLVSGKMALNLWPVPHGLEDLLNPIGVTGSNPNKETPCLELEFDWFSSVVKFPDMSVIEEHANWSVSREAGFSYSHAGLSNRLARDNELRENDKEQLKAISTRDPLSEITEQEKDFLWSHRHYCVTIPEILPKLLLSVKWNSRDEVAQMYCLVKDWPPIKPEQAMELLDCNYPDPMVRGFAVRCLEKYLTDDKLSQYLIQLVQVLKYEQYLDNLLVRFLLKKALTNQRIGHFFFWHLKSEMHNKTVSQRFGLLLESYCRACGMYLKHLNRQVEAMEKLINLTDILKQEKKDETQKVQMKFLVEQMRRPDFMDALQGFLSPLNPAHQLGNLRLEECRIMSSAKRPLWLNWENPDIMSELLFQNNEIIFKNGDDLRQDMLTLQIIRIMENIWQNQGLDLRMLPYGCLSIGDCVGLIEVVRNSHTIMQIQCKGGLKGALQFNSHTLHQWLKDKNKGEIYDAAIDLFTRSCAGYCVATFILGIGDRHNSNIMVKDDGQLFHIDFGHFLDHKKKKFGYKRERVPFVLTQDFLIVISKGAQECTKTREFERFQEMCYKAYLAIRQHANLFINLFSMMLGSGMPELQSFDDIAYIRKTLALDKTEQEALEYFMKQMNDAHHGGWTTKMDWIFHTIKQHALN
T4 sequence (P27986 whole entry partner): as the sequence (P27986 whole entry partner) above

Take `C[C@H]1COCCN1c1nc2c(c(-c3ccc(NC(=O)NC4CC4)cc3)n1)CN(S(=O)(=O)C1CC1)C2` [Example 35, (S)-1-cyclopropyl-3-(4-(6-(cyclopropylsulfonyl)-2-(3-methylmorpholino)-6,7-dihydro-5H-pyrrolo[3,4-d]pyrimidin-4-yl)phenyl)urea]: the IC50 in assay [1] was greater than 100 µM; in assay [2], greater than 100 µM; in assay [3], 1 to 10 µM; in assay [4], greater than 100 µM; in assay [5], greater than 100 µM; in assay [6], greater than 100 µM.

With `C[C@H]1COCCN1c1nc2c(c(-c3ccc(NC(=O)NCCO)cc3)n1)CN(S(C)(=O)=O)C2` [Example 36, (S)-1-(2-hydroxyethyl)-3-(4-(2-(3-methylmorpholino)-6-(methylsulfonyl)-6,7-dihydro-5H-pyrrolo[3,4-d]pyrimidin-4-yl)phenyl)urea], the half-maximal inhibitory concentration (IC50) was 10 to 100 µM in assay [1]; 1 to 10 µM in assay [2]; 0.1 to 1 µM in assay [3]; 10 to 100 µM in assay [4]; greater than 100 µM in assay [5]; 10 to 100 µM in assay [6].

Turning to `CCNC(=O)N1Cc2nc(N3CCOC[C@@H]3C)nc(-c3ccc(NC(=O)NCCO)cc3)c2C1` [Example 37, (S)—N-ethyl-4-(4-(3-(2-hydroxyethyl)ureido)phenyl)-2-(3-methylmorpholino)-5H-pyrrolo[3,4-d]pyrimidine-6(7H)-carboxamide], the IC50 was 10 to 100 µM in assay [1]; 10 to 100 µM in assay [2]; 0.1 to 1 µM in assay [3]; 1 to 10 µM in assay [4]; 10 to 100 µM in assay [5]; 10 to 100 µM in assay [6].

For the molecule `C[C@H]1COCCN1c1nc2c(c(-c3ccc(NC(=O)NCCO)cc3)n1)CN(C1CCCCC1)C2` [Example 38, (S)-1-(4-(6-cyclohexyl-2-(3-methylmorpholino)-6,7-dihydro-5H-pyrrolo[3,4-d]pyrimidin-4-yl)phenyl)-3-(2-hydroxyethyl)urea], the IC50 in assay [1] is greater than 100 µM; in assay [2] it was greater than 100 µM; in assay [3], 1 to 10 µM; in assay [4] it was greater than 100 µM; in assay [5], greater than 100 µM; in assay [6] it was greater than 100 µM.

Take `CC(=O)N1Cc2nc(N3CCOC[C@@H]3C)nc(-c3ccc(NC(=O)NCCO)cc3)c2C1` [Example 39, (S)-1-(4-(6-acetyl-2-(3-methylmorpholino)-6,7-dihydro-5H-pyrrolo[3,4-d]pyrimidin-4-yl)phenyl)-3-(2-hydroxyethyl)urea]: the IC50 in assay [1] is 10 to 100 µM; in assay [2], 10 to 100 µM; in assay [3], 0.1 to 1 µM; in assay [4], 10 to 100 µM; in assay [5] it was 10 to 100 µM; in assay [6], 1 to 10 µM.

With `C[C@H]1COCCN1c1nc2c(c(-c3ccc(NC(=O)NC4CC4)cc3)n1)CN(C(=O)C1CCOC1)C2` (stereo partly drawn) [Example 40, 1-cyclopropyl-3-(4-(2-((S)-3-methylmorpholino)-6-(tetrahydrofuran-3-carbonyl)-6,7-dihydro-5H-pyrrolo[3,4-d]pyrimidin-4-yl)phenyl)urea 2,2,2-trifluoroacetate], the IC50 was 10 to 100 µM in assay [1]; greater than 100 µM in assay [2]; 1 to 10 µM in assay [3]; 10 to 100 µM in assay [4]; greater than 100 µM in assay [5]; 10 to 100 µM in assay [6].

As for `C[C@H]1COCCN1c1nc2c(c(-c3ccc(NC(=O)NC4CC4)cc3)n1)CN(C(=O)C1CCCN1)C2` (stereo partly drawn) [Example 41, 1-cyclopropyl-3-(4-(2-((S)-3-methylmorpholino)-6-(pyrrolidine-2-carbonyl)-6,7-dihydro-5H-pyrrolo[3,4-d]pyrimidin-4-yl)phenyl)urea hydrochloride], the IC50 is 10 to 100 µM in assay [1]; 10 to 100 µM in assay [2]; 1 to 10 µM in assay [3]; 10 to 100 µM in assay [4]; greater than 100 µM in assay [5]; 10 to 100 µM in assay [6].

Take `C[C@H]1COCCN1c1nc2c(c(-c3ccc(NC(=O)NC4CC4)cc3)n1)CN(C(N)=O)C2` [Example 42, (S)-4-(4-(3-cyclopropylureido)phenyl)-2-(3-methylmorpholino)-5H-pyrrolo[3,4-d]pyrimidine-6(7H)-carboxamide 2,2,2-trifluoroacetate]: the IC50 in assay [1] was 10 to 100 µM; in assay [2], greater than 100 µM; in assay [3], 0.1 to 1 µM; in assay [4] it was 10 to 100 µM; in assay [5], greater than 100 µM; in assay [6] it was 10 to 100 µM.

As for `O=C(NCCO)Nc1ccc(-c2nc(N3CC4CCC(C3)O4)nc3c2CNC3)cc1` [Example 43, 1-(4-(2-(8-oxa-3-azabicyclo[3.2.1]octan-3-yl)-6,7-dihydro-5H-pyrrolo[3,4-d]pyrimidin-4-yl)phenyl)-3-(2-hydroxyethyl)urea hydrochloride], the IC50 in assay [1] was greater than 100 µM; in assay [2], greater than 100 µM; in assay [3] it was no more than 0.1 µM; in assay [4], greater than 100 µM; in assay [5], 1 to 10 µM; in assay [6], greater than 100 µM.

`CCNC(=O)Nc1ccc(-c2nc(N3CC4CCC(C3)O4)nc3c2CNC3)cc1` [Example 44, 1-(4-(2-(8-oxa-3-azabicyclo[3.2.1]octan-3-yl)-6,7-dihydro-5H-pyrrolo[3,4-d]pyrimidin-4-yl)phenyl)-3-ethylurea hydrochloride]: the IC50 in assay [1] was 10 to 100 µM; in assay [2] it was greater than 100 µM; in assay [3], 0.1 to 1 µM; in assay [4] it was greater than 100 µM; in assay [5], 10 to 100 µM; in assay [6], 10 to 100 µM.

For the molecule `CC(O)CNC(=O)Nc1ccc(-c2nc(N3CCOC[C@@H]3C)nc3c2CN(C(C)C)C3)cc1` (stereo partly drawn) [Example 45, 1-(2-hydroxypropyl)-3-(4-(6-isopropyl-2-((S)-3-methylmorpholino)-6,7-dihydro-5H-pyrrolo[3,4-d]pyrimidin-4-yl)phenyl)urea], the IC50 in assay [1] was greater than 100 µM; in assay [2], greater than 100 µM; in assay [3], 1 to 10 µM; in assay [4], 10 to 100 µM; in assay [5], greater than 100 µM; in assay [6], greater than 100 µM.

Take `CCNC(=O)Nc1ccc(-c2nc(N3CCOC[C@@H]3C)nc3c2CN(C(C)C)C3)cc1` [Example 46, (S)-1-ethyl-3-(4-(6-isopropyl-2-(3-methylmorpholino)-6,7-dihydro-5H-pyrrolo[3,4-d]pyrimidin-4-yl)phenyl)urea 2,2,2-trifluoroacetate]: the IC50 in assay [1] was greater than 100 µM; in assay [2], greater than 100 µM; in assay [3] it was 1 to 10 µM; in assay [4], greater than 100 µM; in assay [5], greater than 100 µM; in assay [6], greater than 100 µM.

For `C[C@H]1COCCN1c1nc2c(c(-c3ccc(NC(=O)NC4CC4)cc3)n1)CN(C(=O)CN1CCOCC1)C2` [Example 47, (S)-1-cyclopropyl-3-(4-(2-(3-methylmorpholino)-6-(2-morpholinoacetyl)-6,7-dihydro-5H-pyrrolo[3,4-d]pyrimidin-4-yl)phenyl)urea 2,2,2-trifluoroacetate], the IC50 is 10 to 100 µM in assay [1]; greater than 100 µM in assay [2]; 1 to 10 µM in assay [3]; greater than 100 µM in assay [4]; greater than 100 µM in assay [5]; greater than 100 µM in assay [6].

These data come from US20140163023A1, “DIHYDROPYRROLO PYRIMIDINE DERIVATIVES AS MTOR INHIBITORS” (Cellzome Limited, priority 2011, published 2014).
